One data set has as its system MT-4 cells. The experiment in a line: Cytotoxicity with respect to non-infected MT-4 cells (MTT method). The format is cell-based. The settings on record: 5 days; for CC50 (50% cytotoxic concentration): 37° C., MTT method. As for the experimental part:
(§1) Evaluation method: Test substances having various concentrations were placed in a 96-well microtiter plate along with HIV-infected MT-4 cells (2.5×10^4 /well, MOI: 0.01) immediately after the infection thereof. In order to ascertain the cytotoxicity of the test substance with respect to the MT-4 cells, non-infected cells were cultured in an identical manner along with the test substances of various concentrations. After culturing for 5 days at a temperature of 37° C. in a CO2 incubator, the number of living cells was determined using the MTT method. The antiviral activity is shown in terms of the concentration which prevented 50% of the cytopathogenic effects of the HIV virus (EC50 : 50% effective concentration) and the cytotoxicity is shown in terms of the concentration at which the cytotoxicity of the test substance reaches 50% (CC50 : 50% cytotoxic concentration).Furthermore, the selectivity index (S.I.) is calculated as CC50 /EC50.
(§2) (Reference: Pauwels, et al., J. Viral Methods, 20 (1988) 309-321). Using this method, the compounds of Examples 30-43 were tested for anti-HIV activity. The compounds shown in Table 2 (Examples 35~38) are produced by means of novel sulfation methods. For the purposes of comparison, the conventional anti-AIDS agents AZT (3'-azido-2',3'-dideoxythymidine) and dextran sulfate were also tested, and the results thereof are appended as comparative data.

A further data set concerns HIV. The experiment in a line: Anti-AIDS (HIV) activity in HIV-infected MT-4 cells (MTT method). The format is cell-based. The note with it: for EC50 (50% effective concentration, prevention of 50% of cytopathogenic effects of HIV): 37° C., MTT method. The protocol:
as §1, §2

Where [1] appears, read: HIV-infected MT-4 cells, MOI 0.01, 5 days.

Bounds are passed on as bounds.

Take `Cc1cn([C@H]2C[C@H](N=[N+]=[N-])[C@@H](CO)O2)c(=O)[nH]c1=O` [AZT, 3'-azido-2',3'-dideoxythymidine, reference compound]: the CC50 in the data set on MT-4 cells (AZT, footnote: units are μM, read-out: CC50 (50% cytotoxic concentration)) is 10.8 µM. In the data set with HIV (CC50/EC50, MT-4 cells, HIV), the “SI (selectivity index, CC50/EC50)” value was 2700. In addition, the EC50 with HIV (Human immunodeficiency virus 1, MT4, 120 h, AZT, footnote: units are μM, HIV-infected MT-4 cells, MOI 0.01, 5 days, read-out: EC50 (50% effective concentration)) amounted to 0.004 µM.
On to dextran sulfate [reference compound], for which the “CC50 (50% cytotoxic concentration)” value with MT-4 cells is > 1000 µg/mL. For the same compound, in the data set with HIV (setting [1]), the “EC50 (50% effective concentration, prevention of 50% of cytopathogenic effects of HIV)” value came to 0.50 µg/mL.
The corresponding values for “heptyloxyphenyl β-D-galactopyranosyl-(1→4)-{β-D-galactopyranosyl-(1→4)}2 -β-D-glucopyranoside sulfate [Example 42]” are > 1000 µg/mL and 0.23 µg/mL.
The corresponding values for “octyloxyphenyl β-D-galactopyranosyl-(1→4)-{β-D-galactopyranosyl-(1→4)}2 -β-D-glucopyranoside sulfate [Example 40]” are > 1000 µg/mL and 0.95 µg/mL.
As for “octyloxyphenyl β-D-galactopyranosyl-(1→4)-β-D-galactopyranosyl-(1→4)-β-D-glucopyranoside sulfate [Example 41]”, the “CC50 (50% cytotoxic concentration)” value in the data set on MT-4 cells was > 1000 µg/mL. Further, the “EC50 (50% effective concentration, prevention of 50% of cytopathogenic effects of HIV)” value with HIV (setting [1]) was 1.12 µg/mL.
The corresponding values for “octylphenyl β-D-galactopyranosyl-(1→4)-{β-D-galactopyranosyl-(1→4)}2 -β-D-glucopyranoside sulfate [Example 39]” are > 1000 µg/mL and 0.82 µg/mL.
In the same order, the values of “p-(1,1,3,3-tetramethylbutyl)phenyl β-D-galactopyranosyl-(1→4)-{β-D-galactopyranosyl-(1→4)}2 -β-D-glucopyranoside sulfate [Example 43]” are > 1000 µg/mL and 0.04 µg/mL.
Turning to “p-(1,1,3,3-tetramethylbutyl)phenyl β-D-glucopyranosyl-(1→3)-{β-D-glucopyranosyl-(1→3)}3 -β-D-glucopyranoside sulfate [Example 35]”, the “CC50 (50% cytotoxic concentration)” value in the data set on MT-4 cells was > 1000 µg/mL. Besides, in the data set on HIV (setting [1]), the “EC50 (50% effective concentration, prevention of 50% of cytopathogenic effects of HIV)” value came to 0.038 µg/mL.
Consider “p-(1,1,3,3-tetramethylbutyl)phenyl β-D-glucopyranosyl-(1→3)-{β-D-glucopyranosyl-(1→3)}m -β-D-glucopyranoside sulfate [Example 38]”, for which, in the data set on MT-4 cells, the “CC50 (50% cytotoxic concentration)” value was > 1000 µg/mL. Further, the “EC50 (50% effective concentration, prevention of 50% of cytopathogenic effects of HIV)” value with HIV (setting [1]) was found to be 0.020 µg/mL.
Take “p-heptyloxyphenyl β-D-glucopyranosyl-(1→3)-{β-D-glucopyranosyl (1→3)}3 -β-D-glucopyranoside sulfate [Example 36]”: the “CC50 (50% cytotoxic concentration)” value in the data set with MT-4 cells is > 1000 µg/mL. The “EC50 (50% effective concentration, prevention of 50% of cytopathogenic effects of HIV)” value in the data set with HIV (setting [1]) stood at 0.062 µg/mL.
Consider “p-heptyloxyphenyl β-D-glucopyranosyl-(1→3)-{β-D-glucopyranosyl-(1→3)}3 -β-D-glucopyranoside sulfate [Example 33]”, for which the “CC50 (50% cytotoxic concentration)” value in the data set on MT-4 cells is > 1000 µg/mL. Besides, in the data set with HIV (setting [1]), the “EC50 (50% effective concentration, prevention of 50% of cytopathogenic effects of HIV)” value was 0.77 µg/mL.
The corresponding values for “p-octylphenyl β-D-glucopyranosyl-(1→3)-{β-D-glucopyranosyl (1→3)}3 -β-D-glucopyranoside sulfate [Example 30]” are > 1000 µg/mL and 0.62 µg/mL.
In the same order, the values of “p-octylphenyl β-D-glucopyranosyl-(1→3)-{β-D-glucopyranosyl (1→3)}3 -β-D-glucopyranoside sulfate [Example 37]” are > 1000 µg/mL and 0.080 µg/mL.
In the same order, the values of “p-octylphenyl β-D-glucopyranosyl-(1→3)-{β-D-glucopyranosyl (1→3)}5 -β-D-glucopyranoside sulfate [Example 34]” are > 1000 µg/mL and 0.31 µg/mL.
With “p-pentylphenyl β-D-glucopyranosyl-(1→3)-{β-D-glucopyranosyl (1→3)}3 -β-D-glucopyranoside sulfate [Example 31]”, in the data set on MT-4 cells, the “CC50 (50% cytotoxic concentration)” value is > 1000 µg/mL. In the data set with HIV (setting [1]), the “EC50 (50% effective concentration, prevention of 50% of cytopathogenic effects of HIV)” value turned out to be 0.75 µg/mL.
In the same order, the values of “sulfated p-heptyloxyphenyl β-D-glucopyranosyl-(1→3)-{β-D-glucopyranosyl-(1→3)}3 -β-D-glucopyranoside [Example 32]” are > 1000 µg/mL and 0.72 µg/mL.

Source of the values: US5498602A, “Oligosaccharide aromatic glycoside and sulfate thereof” (priority 1991, dated 1996).
